Measured values as given in patent US12448389B2, “BRM targeting compounds and associated methods of use” (Prelude Therapeutics Incorporated, priority 2020, dated 2025).

What was measured:
SMARCA2-HiBiT = molecular target: T1, SMARCA2-HiBiT (Homo sapiens, UniProt P51531); experiment: SMARCA2 HiBiT degradation assay in HeLa cells; assay type: cell-based; conditions: 18 hours incubation; for DC50: read-out: HeLa_HiBit-SM2 DC50; for Dmax: HeLa, read-out: HeLa-HiBit-SM2 Dmax (%)
T1 construct: SMARCA2-HiBiT knock-in Hela monoclonal cell (CS302366); host or cells: HeLa monoclonal knock-in line (CRISPR HiBiT knock-in at the endogenous locus, heterozygous)
T1 sequence (P51531 whole entry): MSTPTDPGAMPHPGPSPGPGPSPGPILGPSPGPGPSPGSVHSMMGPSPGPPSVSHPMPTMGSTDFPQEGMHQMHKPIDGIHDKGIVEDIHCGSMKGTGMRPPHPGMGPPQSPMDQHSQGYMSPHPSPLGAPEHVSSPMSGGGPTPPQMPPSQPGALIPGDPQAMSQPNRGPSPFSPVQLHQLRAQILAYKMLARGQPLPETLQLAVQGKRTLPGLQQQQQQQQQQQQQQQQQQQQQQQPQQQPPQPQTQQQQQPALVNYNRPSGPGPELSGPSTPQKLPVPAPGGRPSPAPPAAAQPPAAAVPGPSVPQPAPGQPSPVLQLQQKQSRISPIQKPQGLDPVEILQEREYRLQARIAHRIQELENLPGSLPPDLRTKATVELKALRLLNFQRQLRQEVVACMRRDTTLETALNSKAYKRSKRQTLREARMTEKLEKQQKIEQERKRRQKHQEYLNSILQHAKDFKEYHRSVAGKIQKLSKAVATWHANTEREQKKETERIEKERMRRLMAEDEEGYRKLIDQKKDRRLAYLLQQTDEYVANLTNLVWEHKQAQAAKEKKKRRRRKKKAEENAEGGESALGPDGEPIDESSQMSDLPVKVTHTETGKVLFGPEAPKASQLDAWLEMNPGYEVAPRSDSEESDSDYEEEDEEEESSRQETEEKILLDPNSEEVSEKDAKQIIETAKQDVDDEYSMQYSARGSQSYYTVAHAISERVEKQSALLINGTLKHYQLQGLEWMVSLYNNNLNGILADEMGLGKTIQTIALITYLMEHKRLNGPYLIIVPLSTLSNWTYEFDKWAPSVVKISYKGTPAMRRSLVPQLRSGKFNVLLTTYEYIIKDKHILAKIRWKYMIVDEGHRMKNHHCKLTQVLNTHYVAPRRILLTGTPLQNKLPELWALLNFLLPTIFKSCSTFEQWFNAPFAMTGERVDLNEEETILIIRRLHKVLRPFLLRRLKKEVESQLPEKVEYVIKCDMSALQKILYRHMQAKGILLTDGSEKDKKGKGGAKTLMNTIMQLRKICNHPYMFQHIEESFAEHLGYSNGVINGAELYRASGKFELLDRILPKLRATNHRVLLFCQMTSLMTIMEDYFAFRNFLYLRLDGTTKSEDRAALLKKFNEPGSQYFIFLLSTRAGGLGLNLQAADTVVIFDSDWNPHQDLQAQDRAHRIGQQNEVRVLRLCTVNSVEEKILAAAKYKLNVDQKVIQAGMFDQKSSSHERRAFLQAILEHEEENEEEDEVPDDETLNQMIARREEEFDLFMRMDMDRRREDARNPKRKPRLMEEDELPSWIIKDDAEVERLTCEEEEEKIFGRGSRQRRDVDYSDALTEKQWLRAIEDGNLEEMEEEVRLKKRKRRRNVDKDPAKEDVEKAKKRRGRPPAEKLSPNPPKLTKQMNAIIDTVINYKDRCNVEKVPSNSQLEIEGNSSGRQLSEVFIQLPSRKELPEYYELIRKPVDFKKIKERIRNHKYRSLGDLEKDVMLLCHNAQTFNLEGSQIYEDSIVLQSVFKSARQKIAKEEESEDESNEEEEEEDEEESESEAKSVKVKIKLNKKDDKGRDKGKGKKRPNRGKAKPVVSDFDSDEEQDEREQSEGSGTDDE
Summary of the method: (§1)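 HeLa monoclonal lines with heterozygous HiBiT knock-in were seeded at 2500 cells/well in EMEM with 10% FBS and treated with compound for 18 h at 37 °C. Remaining tagged protein was measured by Nano-Glo HiBiT lytic luminescence after 30–60 min at RT, and values came from curve fitting.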

SMARCA4-HiBiT = molecular target: T2, SMARCA4-HiBiT (Homo sapiens, UniProt P51532); experiment: SMARCA4 HiBiT degradation assay in HeLa cells; assay type: cell-based; conditions: 18 hours incubation; for DC50: read-out: HeLa-HiBit-SM4 DC50; for Dmax: HeLa, read-out: HeLa-HiBit-SM4 Dmax (%)
T2 construct: SMARCA4-HiBiT knock-in Hela monoclonal cell (CS3023226); host or cells: HeLa monoclonal knock-in line (CRISPR HiBiT knock-in at the endogenous locus, heterozygous)
T2 sequence (P51532 whole entry): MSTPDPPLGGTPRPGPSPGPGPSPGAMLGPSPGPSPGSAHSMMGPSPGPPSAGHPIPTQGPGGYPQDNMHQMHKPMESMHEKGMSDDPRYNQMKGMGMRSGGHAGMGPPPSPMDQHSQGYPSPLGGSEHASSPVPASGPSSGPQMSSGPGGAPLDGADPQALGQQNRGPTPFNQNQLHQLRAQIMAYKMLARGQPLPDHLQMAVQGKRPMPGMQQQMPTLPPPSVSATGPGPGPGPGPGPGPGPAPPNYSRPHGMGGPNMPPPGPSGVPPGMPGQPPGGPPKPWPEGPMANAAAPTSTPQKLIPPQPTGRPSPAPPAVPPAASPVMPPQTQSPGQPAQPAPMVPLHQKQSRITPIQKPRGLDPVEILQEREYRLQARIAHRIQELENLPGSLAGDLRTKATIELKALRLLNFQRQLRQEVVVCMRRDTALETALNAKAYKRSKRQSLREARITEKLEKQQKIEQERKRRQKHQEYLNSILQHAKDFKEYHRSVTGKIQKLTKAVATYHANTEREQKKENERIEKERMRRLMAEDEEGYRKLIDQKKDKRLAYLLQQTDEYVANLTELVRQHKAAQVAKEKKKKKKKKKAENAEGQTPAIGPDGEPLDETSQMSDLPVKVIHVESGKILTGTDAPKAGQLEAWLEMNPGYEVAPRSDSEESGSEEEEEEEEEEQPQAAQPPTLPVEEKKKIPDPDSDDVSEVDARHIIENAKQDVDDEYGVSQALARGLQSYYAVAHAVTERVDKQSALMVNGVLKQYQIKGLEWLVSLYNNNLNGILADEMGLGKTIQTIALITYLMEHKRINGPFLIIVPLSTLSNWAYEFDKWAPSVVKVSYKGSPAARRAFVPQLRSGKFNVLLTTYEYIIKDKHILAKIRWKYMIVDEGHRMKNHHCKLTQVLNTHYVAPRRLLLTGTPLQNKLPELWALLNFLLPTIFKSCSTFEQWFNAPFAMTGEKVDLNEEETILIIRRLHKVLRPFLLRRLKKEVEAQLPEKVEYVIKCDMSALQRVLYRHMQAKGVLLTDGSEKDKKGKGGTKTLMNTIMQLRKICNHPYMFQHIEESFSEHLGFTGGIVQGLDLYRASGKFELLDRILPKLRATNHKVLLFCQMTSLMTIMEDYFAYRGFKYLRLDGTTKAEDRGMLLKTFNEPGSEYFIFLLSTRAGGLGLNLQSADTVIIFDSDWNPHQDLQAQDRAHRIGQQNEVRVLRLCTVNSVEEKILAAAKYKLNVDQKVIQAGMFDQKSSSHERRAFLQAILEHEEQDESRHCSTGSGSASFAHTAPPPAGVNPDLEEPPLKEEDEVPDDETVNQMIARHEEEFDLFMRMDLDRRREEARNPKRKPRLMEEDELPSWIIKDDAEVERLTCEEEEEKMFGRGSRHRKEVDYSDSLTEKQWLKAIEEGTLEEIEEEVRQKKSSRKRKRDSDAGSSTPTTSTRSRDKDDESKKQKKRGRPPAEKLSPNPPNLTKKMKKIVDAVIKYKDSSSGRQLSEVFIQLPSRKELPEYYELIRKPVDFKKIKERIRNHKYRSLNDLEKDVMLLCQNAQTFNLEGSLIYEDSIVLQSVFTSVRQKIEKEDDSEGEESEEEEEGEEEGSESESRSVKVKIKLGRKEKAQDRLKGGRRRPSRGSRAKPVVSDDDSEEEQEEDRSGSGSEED
Summary of the method: as §1

| Structure (SMILES) | DC50 (SMARCA2-HiBiT) [nM] | Dmax (SMARCA2-HiBiT) [%] | DC50 (SMARCA4-HiBiT) [nM] | Dmax (SMARCA4-HiBiT) [%] |
| --- | --- | --- | --- | --- |
| O=C1CCC(N2C(=O)c3ccc(C4CCN(CC5CCN(C(=O)N6CCN7c8cc(-c9ccccc9O)nnc8NC[C@H]7C6)CC5)CC4)cc3C2=O)C(=O)N1 (stereo partly drawn) [Example 144, 2-(2,6-dioxopiperidin-3-yl)-5-(1-((1-((S)-2-(2-hydroxyphenyl)-6,6a,7,8,9,10-hexahydro-5H-pyrazino[1′,2′:4,5]pyrazino[2,3-c]pyridazine-8-carbonyl)piperidin-4-yl)methyl)piperidin-4-yl)isoindoline-1,3-dione] | < 10 | 75 to 85 | < 10 | 75 to 85 |
| O=C1CCC(N2Cc3ccc(N4CCN(CC5CCN(C(=O)N6CCN7c8cc(-c9ccccc9O)nnc8NC[C@H]7C6)CC5)CC4)cc3C2=O)C(=O)N1 (stereo partly drawn) [Example 146, 3-(6-(4-((1-((S)-2-(2-hydroxyphenyl)-6,6a,7,8,9,10-hexahydro-5H-pyrazino[1′,2′:4,5]pyrazino[2,3-c]pyridazine-8-carbonyl)piperidin-4-yl)methyl)piperazin-1-yl)-1-oxoisoindolin-2-yl) piperidine-2,6-dione] | < 10 | > 85 | < 10 | > 85 |
| CC1CN(CC2CCN(c3cc4c(cc3F)C(=O)N(C3CCC(=O)NC3=O)C4=O)CC2)CCC1CN1CCN2c3cc(-c4ccccc4O)nnc3NC[C@H]2C1 (stereo partly drawn) [Example 165, 2-(2,6-dioxopiperidin-3-yl)-5-fluoro-6-[4-[[4-[[(10S)-4-(2-hydroxyphenyl)-1,5,6,8,12-pentazatricyclo[8.4.0.02,7]tetradeca-2,4,6-trien-12-yl]methyl]-3-methylpiperidin-1-yl]methyl]piperidin-1-yl] isoindole-1,3-dione] | < 10 | 75 to 85 | < 10 | 75 to 85 |
| O=C1CCC(N2C(=O)c3ccc(N4CC[C@H](CN5CCC(C(=O)N6CCN7c8cc(-c9ccccc9O)nnc8NC[C@H]7C6)CC5)[C@@H](F)C4)cc3C2=O)C(=O)N1 (stereo partly drawn) [Example 202, 2-(2,6-dioxopiperidin-3-yl)-5-[(3R,4R)-3-fluoro-4-[[4-[(10S)-4-(2-hydroxyphenyl)-1,5,6,8,12-pentazatricyclo [8.4.0.02,7]tetradeca-2(7),3,5-trien-12-carbonyl]piperidin-1-yl]methyl]piperidin-1-yl]isoindole-1,3-dione] | < 10 | > 85 | 10 to 100 | 75 to 85 |
| CC1(C)CN(CC2CCN(c3ccc4c(c3)C(=O)N(C3CCC(=O)NC3=O)C4=O)CC2)CCC1CN1CCN2c3cc(-c4ccccc4O)nnc3NC[C@H]2C1 (stereo partly drawn) [Example 257, 2-(2,6-dioxopiperidin-3-yl)-5-(4-((4-(((S)-2-(2-hydroxyphenyl)-5,6,6a,7,9,10-hexahydro-8H-pyrazino[1′,2′:4,5]pyrazino[2,3-c]pyridazin-8-yl)methyl)-3,3-dimethylpiperidin-1-yl)methyl)piperidin-1-yl)isoindoline-1,3-dione] | < 10 | > 85 | < 10 | > 85 |
| O=C1CCC(N2Cc3ccc(N4CC[C@H](CN5CCN(C(=O)N6CCN7c8cc(-c9ccccc9O)nnc8NC[C@H]7C6)CC5)[C@@H](F)C4)cc3C2=O)C(=O)N1 (stereo partly drawn) [Example 205, 3-[5-[(3R.4R)-3-fluoro-4-[[4-[(10S)-4-(2-hydroxyphenyl)-1,5,6,8,12-pentazatricyclo[8.4.0.02,7]tetradeca-2,4,6-triene-12-carbonyl]piperazin-1-yl]methyl]piperidin-1-yl]-3-oxo-1H-isoindol-2-yl]piperidine-2.6-dione] | < 10 | > 85 | 10 to 100 | 75 to 85 |
| O=C1CCC(N2Cc3cc(C4CCN(C5CCN(CCCN6CCN7c8cc(-c9ccccc9O)nnc8NC[C@H]7C6)C5)CC4)ccc3C2=O)C(=O)N1 (stereo partly drawn) [Example 208, 3-(5-(1-(1-(3-((S)-2-(2-hydroxyphenyl)-5,6,6a,7,9,10-hexahydro-8H-pyrazino[1′,2′:4,5]pyrazino[2,3-c]pyridazin-8-yl)propyl)pyrrolidin-3-yl)piperidin-4-yl)-1-oxoisoindolin-2-yl)piperidine-2,6-dione] | < 10 | 75 to 85 | < 10 | 50 to 75 |
| O=C1CCC(N2C(=O)c3ccc(N4CCC(NC5CCN(C(=O)N6CCN7c8cc(-c9ccccc9O)nnc8NC[C@H]7C6)CC5)CC4)cc3C2=O)C(=O)N1 (stereo partly drawn) [Example 141, 2-(2,6-dioxopiperidin-3-yl)-5-(4-((1-((S)-2-(2-hydroxyphenyl)-6,6a,7,8,9,10-hexahydro-5H-pyrazino[1′,2′:4,5]pyrazino[2,3-c]pyridazine-8-carbonyl)piperidin-4-yl)amino)piperidin-1-yl)isoindoline-1,3-dione] | < 10 | 75 to 85 | 10 to 100 | 50 to 75 |
| O=C1CCC(N2Cc3ccc(N4CCC(CN5CCN(C(=O)N6CCN7c8cc(-c9cc(F)ccc9O)nnc8NC[C@H]7C6)CC5)CC4)cc3C2=O)C(=O)N1 (stereo partly drawn) [Example 282, 3-(6-(4-((4-((S)-2-(5-fluoro-2-hydroxyphenyl)-6,6a,7,8,9,10-hexahydro-5H-pyrazino[1′,2′:4,5]pyrazino[2,3-c]pyridazine-8-carbonyl)piperazin-1-yl)methyl)piperidin-1-yl)-1-oxoisoindolin-2-yl)piperidine-2,6-dione] | < 10 | > 85 | < 10 | 75 to 85 |
| CC(C1CCN(CC2CCN(c3ccc4c(c3)C(=O)N(C3CCC(=O)NC3=O)C4=O)CC2)CC1)N1CCN2c3cc(-c4ccccc4O)nnc3NC[C@H]2C1 (stereo partly drawn) [Example 32, 2-(2,6-dioxopiperidin-3-yl)-5-(4-((4-(1-((S)-2-(2-hydroxyphenyl)-5,6,6a,7,9,10-hexahydro-8H-pyrazino[1′,2′:4,5]pyrazino[2,3-c]pyridazin-8-yl)ethyl)piperidin-1-yl)methyl)piperidin-1-yl)isoindoline-1,3-dione] | < 10 | > 85 | < 10 | > 85 |
| O=C1CCC(N2C(=O)c3ccc(N4CCN(CC5CCN(C(=O)N6CCN7c8cc(-c9ccccc9O)nnc8NC[C@H]7C6)CC5)CC4)cc3C2=O)C(=O)N1 (stereo partly drawn) [Example 142, 2-(2,6-dioxopiperidin-3-yl)-5-(4-((1-((S)-2-(2-hydroxyphenyl)-6,6a,7,8,9,10-hexahydro-5H-pyrazino[1′,2′:4,5]pyrazino[2,3-c]pyridazine-8-carbonyl)piperidin-4-yl)methyl)piperazin-1-yl)isoindoline-1,3-dione] | < 10 | 75 to 85 | 10 to 100 | 50 to 75 |
| O=C1CCC(N2Cc3cc(N4CCO[C@H](CN5C[C@@H]6[C@H](C5)[C@H]6CN5CCN6c7cc(-c8ccccc8O)nnc7NC[C@H]6C5)C4)ccc3C2=O)C(=O)N1 (stereo partly drawn) [Example 268, 3-(5-((R)-2-(((1R,5S,6S)-6-(((S)-2-(2-hydroxyphenyl)-5,6,6a,7,9,10-hexahydro-8H-pyrazino[1′,2′:4,5]pyrazino[2,3-c]pyridazin-8-yl)methyl)-3-azabicyclo[3.1.0]hexan-3-yl)methyl)morpholino)-1-oxoisoindolin-2-yl)piperidine-2,6-dione] | < 10 | 75 to 85 | < 10 | 50 to 75 |
